Test results reported in patent US6846925B2, “Colchinol derivatives as angiogenesis inhibitors” (Angiogene Pharmaceuticals Limited, priority 2000, dated 2005).

What was measured:
[1] = system: Hras5 tumours (NIH 3T3 fibroblasts transfected with Harvey ras, clone 5); experiment: Hras5 necrosis model; type: in vivo, nude mice; conditions: single dose, culled 24 hours after dosing
Procedure: NIH 3T3 fibroblasts transfected with Harvey ras, clone 5, (Hras5 cells) were kept in continual passage in Dulbecco's modifed Eagles medium (DMEM) containing 10% foetal bovine serum (FBS) and 1% glutamine, at 37° C. in a humidified incubator gassed with 7.5% carbon dioxide and […]. Cells were implanted subcutaneously into the left flank of male nude mice (8-10 weeks of age) at an inoculum of 2×10^5 cells/mouse. Tumours were measured using calipers and randomised into groups of 2-4 mice between days 9-14 after implant. Mice were dosed with compounds, either intravenously or intraperitoneally, once on day of randomisation and culled 24 hours after dosing. Compounds were dissolved in 20% hydroxypropyl beta cyclodextrin in physiological saline at pH 7 and dosed in a volume of 0.1 ml per 10 g body weight. Tumours were excised, weighed and placed in buffered formalin. Area of necrosis in individual tumours was assessed from a haematoxylin/eosin stained-slide by a pathologist and scored from 0, meaning no significant change, to 10, meaning 91-100% necrosis. The activity of examples 5 and 7 (described hereinafter) against tumour vasculature was measured by the fluorescent dye method described hereinabove. Example 1 scored 6.0 at 100 m/kg and example 4 scored 3.2 at 50 m/kg.

tubulin = conditions: O. Boye et al Med. Chem. Res., 1991, 1, 142-150; read-out: IC50 in a tubulin polymerisation assay; cited from earlier work
[2] = system: tumour vasculature of CaNT tumours; experiment: Activity against tumour vasculature measured by fluorescent dye (Hoechst 33342); type: in vivo; conditions: CaNT tumour-bearing mice, 50 mg/kg intraperitoneally, dye 24 hours after drug treatment
Procedure: (b) Activity Against Tumour Vasculature Measured by Fluorescent Dye
Tumour functional vascular volume in CaNT tumour-bearing mice was measured using the fluorescent dye Hoechst 33342 according to the method of Smith et al (Brit. Jnl. Cancer 1988, 57, 247-253). Five animals were used in control and treated groups. The fluorescent dye was dissolved in saline at 6.25 mg/ml and injected intravenously at 10 mg/kg 24 hours after intraperitoneal drug treatment. One minute later, animals were killed and tumours excised and frozen; 10 μm sections were cut at 3 different levels and observed under UV illumination using an Olympus microscope equipped with epifluorescence. Blood vessels were identified by their fluorescent outlines and vascular volume was quantified using a point scoring system based on that described by Chalkley, (Jnl. Natl. Cancer Inst., 1943, 4, 47-53). All estimates were based on counting a minimum of 100 fields from sections cut at the 3 different levels.

COc1ccc2c(c1)[C@@H](NC(=O)CNC(=O)CN)CCc1cc(OC)c(OC)c(OC)c1-2 [Example 1, N-[(5S)-3,9,10,11-Tetramethoxy-6,7-dihydro-5H-dibenzo[a,c]cyclohepten-5-yl]-2-[2-aminoacetylamino]acetamide]
necrosis score (0 = no significant change, 10 = 91-100% necrosis) ([1]; 100 m/kg): 6.0

COc1ccc2c(c1)[C@@H](NC(=O)OCCOP(=O)([O-])[O-])CCc1cc(OC)c(OC)c(OC)c1-2.[Na+].[Na+] [Example 4, 2-{N-[(5S)-3,9,10,11-tetramethoxy-6,7-dihydro-5H-dibenzo[a,c]cyclohepten-5-yl]carbamoyloxy}ethyl disodium phosphate]
necrosis score (0 = no significant change, 10 = 91-100% necrosis) ([1]; 50 m/kg): 3.2

COc1cc2c(c(OC)c1OC)-c1ccc(N)cc1C(NC(C)=O)CC2 (stereo not shown) [N-[3-amino-9,10,11-trimethoxy-6,7-dihydro-5H-dibenzo[a,c]cyclohepten-5-yl]acetamide]
IC50 (tubulin): 58 µM
decrease of perfused vascular volume relative to control [2]: 88%
